System: Mild to Moderate AD Patients
Assay: Phase II placebo-controlled trial: change in brain volume by volumetric MRI (vMRI) at week 52
Assay type: in vivo, human
Details: for Change in hippocampus volume, least square means (standard error) / Change in whole brain volume, least square means (standard error): mixed-effect model
Excerpt: Test Example 1 Multicenter Randomized Double-Blind Phase II Placebo-Controlled Trial for Assessing Effectiveness and Safety of Compound A in Mild to Moderate AD Patients
Subject (selection criteria): Patients were screened in a period from 42 days before treatment assignment to the assignment based on the following selection criteria.
• Patients who were probable AD and are 55 years old or older and 85 years old or younger at the time of obtaining consent of screening. • Patients with an MMSE score of 12 to 22 at the time of screening • Patients with a Modified Hachinski Ischemia Scale score of 4 or less • Patients who have been treated with a donepezil hydrochloride or rivastigmine transdermal system for at least 4 months before the baseline and with a stable dose thereof for 3 months before the baseline. • In the case of patients who have received memantine in addition to being treated with a donepezil hydrochloride or rivastigmine transdermal system, patients who have been treated with memantine for at least 4 months before the baseline and with a stable dose thereof for 3 months before the baseline. • Patients whose brain MRI or CT results match AD at the time of screening Organization of groups: Patients matched (484 patients) were randomly divided into the following 3 groups and the trial was started. (1) High dose group: 224 mg of a test compound (160 mg in terms of Compound A) was orally administered once a day for 4 weeks and then 448 mg of a test compound (320 mg in terms of Compound A) was orally administered once a day for 48 weeks (158 patients) (2) Low dose group: 224 mg of a test compound (160 mg in terms of Compound A) was orally administered once a day for 52 weeks (166 patients) (3) Placebo group: placebo was orally administered once a day for 52 weeks (158 patients) Method of Assessment: Volumetric MRI
Brain volume of subjects was measured by vMRI scan at the screening and after 52 weeks, and the volume change of the whole brain and the hippocampus of the subjects were quantified to assess brain atrophy based on the change from the screening.
Furthermore, volume change of the whole brain and 101 areas (obtained by dividing the areas existing in both the left brain and the right brain of the Brodmann areas (1 to 52) into 101 areas) in each subject was quantified to assess brain atrophy based on the change from the screening.
Changes in the volume of the whole brain and the hippocampus after 52 weeks from the baseline were compared between the high dose group and the placebo group, and between the low dose group and the placebo group based on Mixed-effect Models. For models, the treatment groups were included as a fixed effect, age, baseline of the respective brain volumes (the whole brain or the hippocampus), baseline of MMSE and ApoE4 genotype (positive/negative) were included as covariates, and trial sites were included as a random effect.
Furthermore, changes in the respective volumes of the whole brain and the 101 areas after 52 weeks from the baseline were compared between the high dose group and the placebo group, and between the low dose group and the placebo group.

[1] = High dose group (160 mg for 4 weeks, then 320 mg in terms of Compound A, oral once a day, for 48 weeks), week 52 vs baseline, vMRI
[2] = Low dose group (160 mg in terms of Compound A, oral once a day, 52 weeks), week 52 vs baseline, vMRI

**Q.** With `OC1CN(CCCOCCc2ccc3sccc3c2)C1` [Compound A, 1-(3-(2-(1-benzothiophen-5-yl)ethoxy)propyl)azetidin-3-ol] as the molecule, how does the “Change in the volume of the whole brain and the hippocampus compared with placebo group (in words)” value (Compound A group vs placebo group, week 52 from baseline) read?
**A.** volume reduction tended to be smaller

**Q.** What about the “Volume reduction of the cerebellum compared to the placebo group (in words)” value (Compound A high dose group) of the same molecule?
**A.** same tendency as in the low dose group was observed

**Q.** What about the “Difference in effects on the change in hippocampal volume vs placebo group (in words)” value (Compound A low dose group vs placebo group, week 52) of the same molecule?
**A.** statistically significant

**Q.** And the “Volume reduction of the cerebellum compared to the placebo group (in words)” value (Compound A low dose group, whole brain and 101 areas, Nos. 1, 2, 4 and 8 in Table 2)?
**A.** particularly tended to be suppressed

**Q.** What about the “Change in hippocampus volume, least square means (standard error)” value [1] of the same molecule?
**A.** −0.31(0.057) mL

**Q.** And the “Change in whole brain volume, least square means (standard error)” value [1]?
**A.** −20.05(3.821) mL

**Q.** And the “Change in hippocampus volume, difference from placebo group (95% confidence interval)” value (High dose group, week 52 vs baseline, p-value 0.0996)?
**A.** 0.08(−0.02, 0.18) mL

**Q.** And the “Change in whole brain volume, difference from placebo group (95% confidence interval)” value (High dose group, week 52 vs baseline, p-value 0.2581)?
**A.** 3.94(−2.91, 10.79) mL

**Q.** And the “Change in hippocampus volume, least square means (standard error)” value [2]?
**A.** −0.27(0.053) mL

**Q.** What about the “Change in whole brain volume, least square means (standard error)” value [2] of the same molecule?
**A.** −21.37(3.582) mL

**Q.** What about the “Change in hippocampus volume, difference from placebo group (95% confidence interval)” value (Low dose group, week 52 vs baseline, p-value 0.0106) of the same molecule?
**A.** 0.12(0.03, 0.22) mL

**Q.** What about the “Change in whole brain volume, difference from placebo group (95% confidence interval)” value (Low dose group, week 52 vs baseline, p-value 0.4456) of the same molecule?
**A.** 2.63(−4.15, 9.40) mL

**Q.** And the “Change in brain volume, mean value: ctx-lh-parsorbitalis” value (Low dose group, week 52 vs baseline, vMRI, placebo −0.5499, p 0.0323)?
**A.** 0.1244

**Q.** What about the “Change in brain volume, mean value: Left-Cerebellum-Cortex” value (Low dose group, week 52 vs baseline, vMRI, placebo −0.6899, p 0.0005) of the same molecule?
**A.** −0.2695

**Q.** What about the “Change in brain volume, mean value: Right-Cerebellum-Cortex” value (Low dose group, week 52 vs baseline, vMRI, placebo −0.7248, p 0.0090) of the same molecule?
**A.** −0.3209

**Q.** What about the “Change in brain volume, mean value: Right-Cerebral-White-Matte” value (Low dose group, week 52 vs baseline, vMRI, placebo −1.4416, p 0.0157) of the same molecule?
**A.** −1.0753

**Q.** What about the “Change in brain volume, mean value: ctx-rh-lateral orbitofrontal” value (Low dose group, week 52 vs baseline, vMRI, placebo −1.5322, p 0.0146) of the same molecule?
**A.** −0.8995

**Q.** What about the “Change in brain volume, mean value: Left-Cerebral-White-Matter” value (Low dose group, week 52 vs baseline, vMRI, placebo −1.5679, p 0.0215) of the same molecule?
**A.** −1.2418

**Q.** What about the “Change in brain volume, mean value: Whole_brain” value (Low dose group, week 52 vs baseline, vMRI, placebo −1.5952, p 0.0054) of the same molecule?
**A.** −1.3142

**Q.** What about the “Change in brain volume, mean value: Right-Cerebellum-White-Matter” value (Low dose group, week 52 vs baseline, vMRI, placebo −1.6919, p 0.0014) of the same molecule?
**A.** −0.89

**Q.** What about the “Change in brain volume, mean value: Left-Cerebellum-White-Matter” value (Low dose group, week 52 vs baseline, vMRI, placebo −2.0490, p 0.0001) of the same molecule?
**A.** −0.9201

**Q.** And the “Change in brain volume, mean value: ctx-lh-insula” value (Low dose group, week 52 vs baseline, vMRI, placebo −2.6470, p 0.0030)?
**A.** −1.9609

**Q.** What about the “Change in brain volume, mean value: ctx-rh-insula” value (Low dose group, week 52 vs baseline, vMRI, placebo −2.6510, p 0.0056) of the same molecule?
**A.** −1.9976

**Q.** What about the “Change in brain volume, mean value: ctx-rh-superior temporal” value (Low dose group, week 52 vs baseline, vMRI, placebo −2.9861, p 0.0013) of the same molecule?
**A.** −2.1332

**Q.** And the “Change in brain volume, mean value: Left-Hippocampus” value (Low dose group, week 52 vs baseline, vMRI, placebo −3.0880, p 0.0232)?
**A.** −2.3402

**Q.** What about the “Change in brain volume, mean value: ctx-rh-inferior temporal” value (Low dose group, week 52 vs baseline, vMRI, placebo −3.2601, p 0.0124) of the same molecule?
**A.** −2.6157

**Q.** What about the “Change in brain volume, mean value: ctx-lh-entorhinal” value (Low dose group, week 52 vs baseline, vMRI, placebo −3.8173, p 0.0195) of the same molecule?
**A.** −2.97

From patent publication US11660287B2, “Agent for preventing or treating spinocerebellar ataxia” (FUJIFILM Toyama Chemical Co., Ltd., priority 2017, dated 2023)
